Patent US20250154197A1, “LIPOLYTIC PEPTIDES” (FUNDACIÓ HOSPITAL UNIVERSITARI VALL D'HEBRON - INSTITUT DE …, priority 2021, published 2025)
Where no end group is shown, it is not given here. [ ]: non-standard residue; d: D form.

Legend:
[1] = tested on: human subcutaneoous mature adipocytes; assay: Lipolytic activity: glycerol release in human adipocytes (Lipolysis Assay kit); type: cell-based; conditions: human subcutaneous mature adipocytes
3T3-L1 mouse adipocytes = assay: Lipolytic activity: glycerol release in differentiated 3T3-L1 mouse adipocytes (12 h); type: cell-based; conditions: 3T3-L1 mouse adipocytes, 12 h
Experimental: JCRB9014-A) from Tebu-Bio (Tebu-bio, Barcelona, Spain). Briefly, mouse adipocytes (3T3-L1 cells) were cultured in 48 well plates as described previously (Saez-Lopez et al., 2020). Adipocytes were differentiated using cell culture reagents purchased from Tebu-Bio and following the manufacturer's instructions. At day of differentiation cells were treated in duplicates with vehicle (DMSO), Caffeine (100 μg/ml), and each of the peptides at the specified doses in Table 6a below. At the end of the experiment (12 h), supernatants were collected and glycerol content was measured using a Glycerol Assay Kit (Sigma) following manufacturer's instructions.

Substance	Lipolysis Activity measured as Glycerol (μM) release in media ([1]; 25 μg/ml) [µM]	Lipolysis Activity measured as Glycerol (μM) release in media ([1]; 50 μg/ml) [µM]	Lipolysis Activity measured as Glycerol (μM) release in media ([1]; 75 μg/ml) [µM]	Lipolysis Activity measured as Glycerol (μM) release in media ([1]; 100 μg/ml) [µM]	Lipolysis Activity measured as Glycerol (μM) release in media (3T3-L1 mouse adipocytes; 1 μg/ml) [µM]	Lipolysis Activity measured as Glycerol (μM) release in media (3T3-L1 mouse adipocytes; 10 μg/ml) [µM]	Lipolysis Activity measured as Glycerol (μM) release in media (3T3-L1 mouse adipocytes; 100 μg/ml) [µM]
Ac-TWDPEGVIFY (Ac-[dT][dW][dD][dP][dE]G[dV][dI][dF][dY]) [GP3D-Ac, N-term CH3CONH, C-term COOH]	16.56	36.41	43.36	58.41	354	388	498
DPEGLFY (H-[dD][dP][dE]G[dL][dF][dY]-OH; SMILES CC(C)C[C@@H](NC(=O)CNC(=O)[C@@H](CCC(=O)O)NC(=O)[C@H]1CCCN1C(=O)[C@H](N)CC(=O)O)C(=O)N[C@H](Cc1ccccc1)C(=O)N[C@H](Cc1ccc(O)cc1)C(=O)O) [GP3D-DM2, N-term NH2, C-term COOH]	15.77	34.83	48.40	52.24	303	–	–
DPEGVI (H-[dD][dP][dE]G[dV][dI]-OH; SMILES CC[C@@H](C)[C@@H](NC(=O)[C@H](NC(=O)CNC(=O)[C@@H](CCC(=O)O)NC(=O)[C@H]1CCCN1C(=O)[C@H](N)CC(=O)O)C(C)C)C(=O)O) [GP3D-6 I II IX X, N-term NH2, C-term COOH]	17.01	40.79	43.36	53.13	326	300	368
DPEGVIF (H-[dD][dP][dE]G[dV][dI][dF]-OH; SMILES CC[C@@H](C)[C@@H](NC(=O)[C@H](NC(=O)CNC(=O)[C@@H](CCC(=O)O)NC(=O)[C@H]1CCCN1C(=O)[C@H](N)CC(=O)O)C(C)C)C(=O)N[C@H](Cc1ccccc1)C(=O)O) [GP3D-7 I II X, N-term NH2, C-term COOH]	17.04	34.80	48.09	58.31	391	405	313
DPEGVIFY (H-[dD][dP][dE]G[dV][dI][dF][dY]-OH; not fully specified) [GP3D-8 I II, N-term NH2, C-term COOH]	–	–	–	–	401	474	468
DPEGVLY (H-[dD][dP][dE]G[dV][dL][dY]-OH; SMILES CC(C)C[C@@H](NC(=O)[C@H](NC(=O)CNC(=O)[C@@H](CCC(=O)O)NC(=O)[C@H]1CCCN1C(=O)[C@H](N)CC(=O)O)C(C)C)C(=O)N[C@H](Cc1ccc(O)cc1)C(=O)O) [GP3D-DM3, N-term NH2, C-term COOH]	–	–	–	–	–	–	307
TDPEGVIF (H-[dT][dD][dP][dE]G[dV][dI][dF]-OH; not fully specified) [GP3D-8 II X, N-term NH2, C-term COOH]	–	–	–	–	391	434	493
TDPEGVIFY (H-[dT][dD][dP][dE]G[dV][dI][dF][dY]-OH; not fully specified) [GP3D-9 II, N-term NH2, C-term COOH]	–	–	–	–	–	–	315
TDPEGVIY (H-[dT][dD][dP][dE]G[dV][dI][dY]-OH; not fully specified) [GP3D-8 II IX, N-term NH2, C-term COOH]	–	–	–	–	557	508	370
TWDPEG (H-[dT][dW][dD][dP][dE]G-OH; SMILES C[C@H](O)[C@@H](N)C(=O)N[C@H](Cc1c[nH]c2ccccc12)C(=O)N[C@H](CC(=O)O)C(=O)N1CCC[C@@H]1C(=O)N[C@H](CCC(=O)O)C(=O)NCC(=O)O) [GP3D-6 VII VIII IX X, N-term NH2, C-term COOH]	–	–	–	–	404	327	–
TWDPEGIFY (H-[dT][dW][dD][dP][dE]G[dI][dF][dY]-OH; not fully specified) [GP3D-9 VII, N-term NH2, C-term COOH]	–	–	–	–	–	–	354
TWDPEGVI (H-[dT][dW][dD][dP][dE]G[dV][dI]-OH; not fully specified) [GP3D-8 IX X, N-term NH2, C-term COOH]	–	–	–	–	396	383	528
TWDPEGVIF (H-[dT][dW][dD][dP][dE]G[dV][dI][dF]-OH; not fully specified) [GP3D-9 X, N-term NH2, C-term COOH]	–	–	–	–	–	–	493
TWDPEGVIFY [GP3D-NH2] ([dT][dW][dD][dP][dE]G[dV][dI][dF][dY]-NH2; N-terminus assumed; SMILES CC[C@@H](C)[C@@H](NC(=O)[C@H](NC(=O)CNC(=O)[C@@H](CCC(=O)O)NC(=O)[C@H]1CCCN1C(=O)[C@@H](CC(=O)O)NC(=O)[C@@H](Cc1c[nH]c2ccccc12)NC(=O)[C@H](N)[C@H](C)O)C(C)C)C(=O)N[C@H](Cc1ccccc1)C(=O)N[C@H](Cc1ccc(O)cc1)C(N)=O) [N-term NH2, C-term CONH2]	–	–	–	–	506	449	368
TWDPEGVIY (H-[dT][dW][dD][dP][dE]G[dV][dI][dY]-OH; not fully specified) [GP3D-9 IX, N-term NH2, C-term COOH]	–	–	–	–	–	–	356
TWDPEVIFY (H-[dT][dW][dD][dP][dE][dV][dI][dF][dY]-OH; not fully specified) [GP3D-9 VI, N-term NH2, C-term COOH]	–	–	–	–	–	–	315
TWDPGVIFY (H-[dT][dW][dD][dP]G[dV][dI][dF][dY]-OH; not fully specified) [GP3D-9 V, N-term NH2, C-term COOH]	–	–	–	–	–	–	394
TWPEGVIFY (H-[dT][dW][dP][dE]G[dV][dI][dF][dY]-OH; not fully specified) [GP3D-9 III, N-term NH2, C-term COOH]	–	–	–	–	–	–	346
WDNEGLY (H-[dW][dD][dN][dE]G[dL][dY]-OH; SMILES CC(C)C[C@@H](NC(=O)CNC(=O)[C@@H](CCC(=O)O)NC(=O)[C@@H](CC(N)=O)NC(=O)[C@@H](CC(=O)O)NC(=O)[C@H](N)Cc1c[nH]c2ccccc12)C(=O)N[C@H](Cc1ccc(O)cc1)C(=O)O) [GP3D-DM4, N-term NH2, C-term COOH]	–	–	–	–	469	416	309
WDPEG (H-[dW][dD][dP][dE]G-OH; SMILES N[C@H](Cc1c[nH]c2ccccc12)C(=O)N[C@H](CC(=O)O)C(=O)N1CCC[C@@H]1C(=O)N[C@H](CCC(=O)O)C(=O)NCC(=O)O) [GP3D-5 I VII VIII IX X, N-term NH2, C-term COOH]	–	–	–	–	368	349	398
WDPEGVIF (H-[dW][dD][dP][dE]G[dV]I[dF]-OH; not fully specified (residue 7)) [GP3D-8 I X, N-term NH2, C-term COOH]	–	–	–	–	616	465	441
WDPEGVIFY (H-[dW][dD][dP][dE]G[dV]I[dF][dY]-OH; not fully specified (residue 7)) [GP3D-9 I, N-term NH2, C-term COOH]	–	–	–	–	–	–	344
WDPEGVIY (H-[dW][dD][dP][dE]G[dV]I[dY]-OH; not fully specified (residue 7)) [GP3D-8 I IX, N-term NH2, C-term COOH]	–	–	–	–	452	426	588
WDPEGVY (H-[dW][dD][dP][dE]G[dV][dY]-OH; SMILES CC(C)[C@@H](NC(=O)CNC(=O)[C@@H](CCC(=O)O)NC(=O)[C@H]1CCCN1C(=O)[C@@H](CC(=O)O)NC(=O)[C@H](N)Cc1c[nH]c2ccccc12)C(=O)N[C@H](Cc1ccc(O)cc1)C(=O)O) [GP3D-7 I VIII IX, N-term NH2, C-term COOH]	–	–	–	–	–	314	–
